# Laboratory results taken from PubChem BioAssay (NCI).
#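 Tested at 5 concentrations; 48 h exposure; 96-well plates; endpoints linearly interpolated, else capped at highest concentration. GI50 = concentration required for 50% inhibition of growth. The concentration for full growth arrest is given as TGI.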
# Legend:
# Assay in all cases: growth of human tumour cells (NCI), 48 h
# [1] = tested on: CAKI-1 renal
# [2] = tested on: NCI-H522 lung
# [3] = tested on: PC-3 prostate
# [4] = tested on: NCI/ADR-RES ovarian
# [5] = tested on: NCI-H23 lung
# [6] = tested on: HL-60(TB) leukemia
# [7] = tested on: HT29 colon
# [8] = tested on: UO-31 renal
# [9] = tested on: A498 renal
# [10] = tested on: SF-539 CNS
# [11] = tested on: TK-10 renal
# [12] = tested on: SW-620 colon
# [13] = tested on: T-47D breast
# [14] = tested on: A549 NSCLC
# [15] = tested on: SK-MEL-28 melanoma
# [16] = tested on: HOP-62 NSCLC
# [17] = tested on: NCI-H460 lung
# [18] = tested on: COLO 205 colon
# [19] = tested on: SN12C renal
# [20] = tested on: MDA-MB-435
# [21] = tested on: M14 melanoma
# [22] = tested on: 786-0 renal
# [23] = tested on: SNB-75 CNS
# [24] = tested on: HCC-2998 colon
# [25] = tested on: ACHN renal
# [26] = tested on: IGROV1 ovarian
# [27] = tested on: SNB-19 CNS
# [28] = tested on: OVCAR-5 ovarian
# [29] = tested on: MDA-MB-231 breast
# [30] = tested on: UACC-62 melanoma
# [31] = tested on: KM12 colon
# [32] = tested on: NCI-H226 lung
# [33] = tested on: DU-145 prostate
# [34] = tested on: OVCAR-4 ovarian
# [35] = tested on: HS 578T breast
# [36] = tested on: CCRF-CEM leukemia
# [37] = tested on: SF-295 CNS
# [38] = tested on: SF-268 CNS
# [39] = tested on: U251 CNS
# [40] = tested on: SK-OV-3 ovarian
# [41] = tested on: HOP-92 NSCLC
# [42] = tested on: BT-549 breast
# [43] = tested on: SK-MEL-2 melanoma
# [44] = tested on: UACC-257 melanoma
# [45] = tested on: MALME-3M melanoma
# [46] = tested on: SK-MEL-5 melanoma
# [47] = tested on: HCT-15 colon
# [48] = tested on: MOLT-4 leukemia
# [49] = tested on: OVCAR-3 ovarian
# [50] = tested on: OVCAR-8 ovarian
# [51] = tested on: EKVX NSCLC
# [52] = tested on: RPMI-8226 leukemia
# [53] = tested on: SR leukemia
# [54] = tested on: RXF 393 renal
# [55] = tested on: K-562 leukemia
# [56] = tested on: MCF7 breast
# [57] = tested on: LOX IMVI melanoma
# [58] = tested on: HCT-116 colon
structure (smiles),measurement,setting,value
CN1CCN(c2ccc3nc(-c4ccc5nc(-c6ccc(OCCC(C)(C)C)cc6)[nH]c5c4)[nH]c3c2)CC1,GI50,[1],4.15 µM
same,TGI,[1],15.7 µM
same,GI50,[2],13.6 µM
same,TGI,[2],38.1 µM
same,GI50,[3],2.63 µM
same,TGI,[3],5.81 µM
same,GI50,[4],35.7 µM
same,TGI,[4],> 100 µM
same,GI50,[5],15.1 µM
same,TGI,[5],33 µM
same,GI50,[6],4.71 µM
same,TGI,[6],29.1 µM
same,GI50,[7],1.78 µM
same,TGI,[7],4.07 µM
same,GI50,[8],21.3 µM
same,TGI,[8],41.8 µM
same,GI50,[9],17.5 µM
same,TGI,[9],35.1 µM
same,GI50,[10],11.5 µM
same,TGI,[10],26.1 µM
same,GI50,[11],18.2 µM
same,TGI,[11],38.8 µM
same,GI50,[12],2.12 µM
same,TGI,[12],3.96 µM
same,GI50,[13],14.2 µM
same,TGI,[13],41.1 µM
same,GI50,[14],4.69 µM
same,TGI,[14],17.7 µM
same,GI50,[15],3.03 µM
same,TGI,[15],9.43 µM
same,GI50,[16],7.1 µM
same,TGI,[16],26.8 µM
same,GI50,[17],2.13 µM
same,TGI,[17],3.97 µM
same,GI50,[18],12.9 µM
same,TGI,[18],30 µM
same,GI50,[19],4 µM
same,TGI,[19],15.4 µM
same,GI50,[20],1.97 µM
same,TGI,[20],3.99 µM
same,GI50,[21],2.39 µM
same,TGI,[21],6.53 µM
same,GI50,[22],2.7 µM
same,TGI,[22],8.33 µM
same,GI50,[23],3.46 µM
same,TGI,[23],18 µM
same,GI50,[24],5.06 µM
same,TGI,[24],18.5 µM
same,GI50,[25],9.2 µM
same,TGI,[25],22.8 µM
same,GI50,[26],7.69 µM
same,TGI,[26],31.6 µM
same,GI50,[27],2.15 µM
same,TGI,[27],4.09 µM
same,GI50,[28],2.96 µM
same,TGI,[28],9.96 µM
same,GI50,[29],2.85 µM
same,TGI,[29],5.83 µM
same,GI50,[30],17.3 µM
same,TGI,[30],40.1 µM
same,GI50,[31],1.91 µM
same,TGI,[31],4.2 µM
same,GI50,[32],23.8 µM
same,TGI,[32],52.2 µM
same,GI50,[33],1.83 µM
same,TGI,[33],3.4 µM
same,GI50,[34],10.1 µM
same,TGI,[34],25.5 µM
same,GI50,[35],10.5 µM
same,TGI,[35],37.1 µM
same,GI50,[36],2.72 µM
same,TGI,[36],7.34 µM
same,GI50,[37],2.34 µM
same,TGI,[37],6.22 µM
same,GI50,[38],6.58 µM
same,TGI,[38],25.4 µM
same,GI50,[39],2.16 µM
same,TGI,[39],3.81 µM
same,GI50,[40],18 µM
same,TGI,[40],36 µM
same,GI50,[41],14.3 µM
same,TGI,[41],33.2 µM
same,GI50,[42],17.5 µM
same,TGI,[42],40.1 µM
same,GI50,[43],19.7 µM
same,TGI,[43],38.5 µM
same,GI50,[44],20.5 µM
same,TGI,[44],38.3 µM
same,GI50,[45],12.2 µM
same,TGI,[45],27.2 µM
same,GI50,[46],12.7 µM
same,TGI,[46],27.6 µM
same,GI50,[47],12.1 µM
same,TGI,[47],28.2 µM
same,GI50,[48],3.12 µM
same,TGI,[48],10.7 µM
same,GI50,[49],5.22 µM
same,TGI,[49],16.8 µM
same,GI50,[50],4.69 µM
same,TGI,[50],18.6 µM
same,GI50,[51],4.67 µM
same,TGI,[51],21.4 µM
same,GI50,[52],2.86 µM
same,TGI,[52],7.44 µM
same,GI50,[53],2.9 µM
same,TGI,[53],8.05 µM
Cc1c(COc2cc(OCc3cccc(C#N)c3)c(CN3C[C@H](O)C[C@@H]3C(=O)O)cc2Cl)cccc1-c1ccc2c(c1)OCCO2,GI50,[1],14.5 µM
same,TGI,[1],27.6 µM
same,GI50,[2],19.8 µM
same,TGI,[2],42.5 µM
same,GI50,[3],2.54 µM
same,TGI,[3],7.7 µM
same,GI50,[4],47.5 µM
same,TGI,[4],> 100 µM
same,GI50,[5],16.9 µM
same,TGI,[5],31 µM
same,GI50,[7],23.2 µM
same,TGI,[7],48.2 µM
same,GI50,[8],16.6 µM
same,TGI,[8],30.2 µM
same,GI50,[9],18.7 µM
same,TGI,[9],33.3 µM
same,GI50,[10],15.2 µM
same,TGI,[10],29.2 µM
same,GI50,[11],20.2 µM
same,TGI,[11],41.5 µM
same,GI50,[54],16 µM
same,TGI,[54],29.9 µM
same,GI50,[12],16.7 µM
same,TGI,[12],31.5 µM
same,GI50,[13],19.8 µM
same,TGI,[13],47 µM
same,GI50,[14],22.1 µM
same,TGI,[14],55.3 µM
same,GI50,[15],13.3 µM
same,TGI,[15],26.1 µM
same,GI50,[16],19.8 µM
same,TGI,[16],38.6 µM
same,GI50,[17],14 µM
same,TGI,[17],29 µM
same,GI50,[18],20.7 µM
same,TGI,[18],39.7 µM
same,GI50,[19],15.7 µM
same,TGI,[19],29.5 µM
same,GI50,[20],17 µM
same,TGI,[20],33.6 µM
same,GI50,[21],13.2 µM
same,TGI,[21],27.1 µM
same,GI50,[22],3.87 µM
same,TGI,[22],15.3 µM
same,GI50,[23],13.6 µM
same,TGI,[23],27 µM
same,GI50,[55],3.43 µM
same,TGI,[55],> 100 µM
same,GI50,[24],15.6 µM
same,TGI,[24],29.2 µM
same,GI50,[25],17.2 µM
same,TGI,[25],31 µM
same,GI50,[26],16.3 µM
same,TGI,[26],32.5 µM
same,GI50,[27],15.6 µM
same,TGI,[27],29 µM
same,GI50,[28],17.3 µM
same,TGI,[28],31 µM
same,GI50,[29],13.8 µM
same,TGI,[29],29.6 µM
same,GI50,[30],17 µM
same,TGI,[30],32.3 µM
same,GI50,[31],16.1 µM
same,TGI,[31],30.3 µM
same,GI50,[32],8.86 µM
same,TGI,[32],31.9 µM
same,GI50,[33],24.4 µM
same,TGI,[33],62.1 µM
same,GI50,[56],4.66 µM
same,TGI,[56],19.3 µM
same,GI50,[34],24.7 µM
same,TGI,[34],61.4 µM
same,GI50,[35],21 µM
same,TGI,[35],53.1 µM
same,GI50,[37],10.7 µM
same,TGI,[37],22.6 µM
same,GI50,[38],21.1 µM
same,TGI,[38],42.6 µM
same,GI50,[39],17.3 µM
same,TGI,[39],47.3 µM
same,GI50,[40],19.4 µM
same,TGI,[40],37.7 µM
same,GI50,[42],7.58 µM
same,TGI,[42],21.8 µM
same,GI50,[43],18.8 µM
same,TGI,[43],41.3 µM
same,GI50,[44],20.6 µM
same,TGI,[44],41.8 µM
same,GI50,[45],14.7 µM
same,TGI,[45],28.9 µM
same,GI50,[46],2.14 µM
same,TGI,[46],5.13 µM
same,GI50,[47],13.7 µM
same,TGI,[47],26.7 µM
same,GI50,[50],27.1 µM
same,TGI,[50],> 100 µM
same,GI50,[57],4.28 µM
same,TGI,[57],16 µM
same,GI50,[58],1.96 µM
same,TGI,[58],4.18 µM
same,GI50,[51],18.1 µM
same,TGI,[51],41.2 µM
same,GI50,[53],2.65 µM
same,TGI,[53],8.95 µM
